Laboratory results reported in patent publication US4294842A, “Anti-protozoal oxadiazole derivatives” (Burroughs Wellcome Co., priority 1978, dated 1981).

Columns and labels:
P. berghei = assay: Inhibition of P. berghei blood parasitaemia in infected mice (oral); format: in vivo; settings: Plasmodium berghei, 96 h, read-out: Percentage Inhibitions of P. berghei; for inhibition in vivo at 100 mg/kg: 7 × 100 mg/kg, parasitaemia on fourth day vs untreated controls; for inhibition in vivo at 50 mg/kg: 7 × 50 mg/kg
Description: Groups of five mice were inoculated intraperitoneally with the normal strain of P. berghei. The mice on test received seven oral doses of drug begining on the afternoon of the day of infection then twice a day for the following three days. Blood parasitaemias were estimated on the fourth day and compared with those of the untreated controls.
The results are given in Table 1, the results being expressed as percentage inhibition of P.berghei.

Eimeria tenella [1] = assay: Inhibition of Eimeria tenella in monolayer cultures of chick embryo liver cells; format: cell-based; settings: fixed 90 hours after infection, scale 0 to 4
Protocol: Monolayer cultures of chick embryo liver cells were seeded onto microtitration plates and treated with the test compound (formulated by suspension in ethanol (0.05 ml) followed by dilution with sterile water (0.95 ml). Sporozoites of Eimeria tenella in culture medium were added and the culture fixed 90 hours after infection. The percentage inhibition compared to controls was determined, the results being expressed on a sacle of 0(0-10% inhibition) to 4(91-100% inhibition). The results are given in Table 2.

Oral LD50 in mice = settings: mouse, in vivo, suspension in 0.25% Celacol
Protocol: The LD50 of the compound of Example 4 was determined in mice by conventional methods, the compound being administered orally as a suspension in 0.25% Celacol.

Eimeria tenella [2] = assay: Index of inhibition, 400ppm in vivo (Table 2); settings: scale 0 to 4

CC(C)(C)c1ccc(SCc2ncon2)cc1 [Example 34, 3-(4-t-Butylphenylthiomethyl)-1,2,4-oxadiazole] gave an inhibition in vivo at 100 mg/kg (P. berghei) of 28%.

Nc1ccccc1SCc1nc(CSc2ccc(Cl)cc2)no1 [Example 40, 5-(2-aminophenylthiomethyl)-3-(4-chlorophenylthiomethyl)-1,2,4-oxadiazole] showed an inhibition in vivo at 100 mg/kg (P. berghei) of 18%.

With Nc1cccc(SCc2ncon2)c1 [Example 9, 3-(3-Aminophenylthiomethyl)-1,2,4-oxadiazole] the inhibition in vivo at 100 mg/kg (P. berghei) was 34% and the “Index of Inhibition” value (Eimeria tenella [1]; 20μg/ml) was 2.

For Oc1ccccc1SCc1ncon1 [Example 29, 3-(2-Hydroxyphenylthiomethyl)-1,2,4-oxadiazole], the inhibition in vivo at 100 mg/kg (P. berghei) was 23%.

With Cc1ccc(SCc2ncon2)cc1 [Example 1, 3-(4-Methylphenylthiomethyl)-1,2,4-oxadiazole] the inhibition in vivo at 100 mg/kg (P. berghei) was 38%.

With Nc1ccc(SCC2=NOCN2)cc1 [Example 44, 3-(4-aminophenylthiomethyl)-4,5-dihydro-1,2,4-oxadiazole] the inhibition in vivo at 100 mg/kg (P. berghei) was 10%.

For Cc1cccc(SCc2ncon2)c1 [Example 8, 3-(3-Methylphenylthiomethyl)-1,2,4-oxadiazole], the “Index of Inhibition” value (Eimeria tenella [1]; 20μg/ml) was 3.

In the case of Brc1ccccc1SCc1ncon1 [Example 5, 3-(2-Bromophenylthiomethyl)-1,2,4-oxadiazole], the inhibition in vivo at 80 mg/kg (P. berghei; 7 × 80 mg/kg) was 2% and the “Index of Inhibition” value (Eimeria tenella [1]; 20μg/ml) was 1.

Brc1ccc(SCc2ncon2)cc1 [Example 3, 3-(4-Bromophenylthiomethyl)-1,2,4-oxadiazole] showed an inhibition in vivo at 100 mg/kg (P. berghei) of 71%.

With Cc1cccc(SCc2ncon2)c1C [Example 17, 3-(2,3-Dimethylphenylthiomethyl)-1,2,4-oxadiazole] the inhibition in vivo at 100 mg/kg (P. berghei) was 62% and the “Index of Inhibition” value (Eimeria tenella [1]; 20μg/ml) was 2.

With c1ccc(Sc2cccc(SCc3ncon3)c2)cc1 [Example 7, 3-(3-Phenylthiophenylthiomethyl)-1,2,4-oxadiazole] the inhibition in vivo at 100 mg/kg (P. berghei) was 2% and the “Index of Inhibition” value (Eimeria tenella [1]; 20μg/ml) was 1.

In the case of CSc1ccc(SCc2ncon2)cc1 [Example 16, 3-(4-Methylthiophenylthiomethyl)-1,2,4-oxadiazole], the inhibition in vivo at 100 mg/kg (P. berghei) was 4% and the “Index of Inhibition” value (Eimeria tenella [1]; 20μg/ml) was 2.

With Fc1ccc(SCc2ncon2)cc1 [Example 15, 3-(4-Fluorophenylthiomethyl)-1,2,4-oxadiazole] the inhibition in vivo at 50 mg/kg (P. berghei) was 59% and the “Index of Inhibition” value (Eimeria tenella [1]; 20μg/ml) was 3.

In the case of Clc1cc(Cl)c(SCc2ncon2)cc1Cl [Example 21, 3-(2,4-5-Trichlorophenylthiomethyl)-1,2,4-oxadiazole], the inhibition in vivo at 20 mg/kg (P. berghei; 7 × 20 mg/kg) was 18%, the inhibition in vivo at 100 mg/kg (P. berghei) was 19% and the “Index of Inhibition” value (Eimeria tenella [1]; 20μg/ml) was 4 (91-100% inhibition).

For O=[N+]([O-])c1ccc(SCc2ncon2)cc1 [Example 12, 3-(4-Nitrophenylthiomethyl)-1,2,4-oxadiazole], the inhibition in vivo at 100 mg/kg (P. berghei) was 14% and the “Index of Inhibition” value (Eimeria tenella [1]; 20μg/ml) was 4 (91-100% inhibition).

For COc1ccccc1SCc1ncon1 [Example 6, 3-(2-Methoxyphenylthiomethyl)-1,2,4-oxadiazole], the inhibition in vivo at 50 mg/kg (P. berghei) was 5%.

c1ccc2cc(SCc3ncon3)ccc2c1 [Example 38, 3-(2-Naphthylthiomethyl)-1,2,4-oxadiazole] showed an inhibition in vivo at 100 mg/kg (P. berghei) of 21%.

Clc1ccc(SCc2noc(CSc3ccc(Cl)cc3)n2)cc1 [Example 27, 3,5-Di-(4-chlorophenylthiomethyl)1,2,4-oxadiazole] showed an inhibition in vivo at 100 mg/kg (P. berghei) of 47%.

For N#CSc1ccc(SCc2ncon2)cc1 [Example 45, 3-(4-Thiocyanatophenylthiomethyl)-1,2,4-oxadiazole], the inhibition in vivo at 10 mg/kg (P. berghei; 7 × 10 mg/kg) was 34% and the “Index of Inhibition” value (Eimeria tenella [1]; 5μg/ml) was 2.

With Cc1ccc(SCc2ncon2)c(C)c1 [Example 18, 3-(2,4-Dimethylphenylthiomethyl)-1,2,4-oxadiazole] the inhibition in vivo at 100 mg/kg (P. berghei) was 14% and the “Index of Inhibition” value (Eimeria tenella [1]; 20μg/ml) was 2.

Molecule c1ccc2c(SCc3ncon3)cccc2c1 [Example 19, 3-(1-Naphthylthiomethyl)-1,2,4-oxadiazole] has an inhibition in vivo at 50 mg/kg (P. berghei) of 55%.

With Cc1ccc(Br)c(SCc2ncon2)c1 [Example 37, 3-(2-Bromo-5-methylphenylthiomethyl)-1,2,4-oxadiazole] the “Index of Inhibition” value (Eimeria tenella [1]; 5μg/ml) was 2 and the “Index of Inhibition” value (Eimeria tenella [1]; 20μg/ml) was 3.

With Cc1nc(CSc2ccc(Cl)cc2)no1 [Example 25, 3-(4-Chlorophenylthiomethyl)-5-methyl-1,2,4-oxadiazole] the “Index of Inhibition” value (Eimeria tenella [1]; 20μg/ml) was 2.

With Cc1nc(CSc2ccc([N+](=O)[O-])cc2)no1 [Example 24, 3-(4-Nitrophenylthiomethyl)-5-methyl-1,2,4-oxadiazole] the “Index of Inhibition” value (Eimeria tenella [1]; 20μg/ml) was 2.

In the case of FC(F)(F)c1cccc(SCc2ncon2)c1 [Example 31, 3-(3-Trifluoromethylphenylthiomethyl)-1,2,4-oxadiazole], the “Index of Inhibition” value (Eimeria tenella [1]; 20μg/ml) was 4 (91-100% inhibition).

In the case of Cc1nc(CSc2ccc(Br)cc2)no1 [Example 22, 3-(4-Bromophenylthiomethyl)-5-methyl-1,2,4-oxadiazole], the inhibition in vivo at 100 mg/kg (P. berghei) was 46% and the “Index of Inhibition” value (Eimeria tenella [1]; 20μg/ml) was 2.

In the case of Nc1ccc(SCc2ncon2)cc1 [Example 14, 3-(4-Aminophenylthiomethyl)-1,2,4-oxadiazole], the inhibition in vivo at 100 mg/kg (P. berghei) was 41% and the “Index of Inhibition” value (Eimeria tenella [1]; 20μg/ml) was 2.

With CN(C)c1ccc(SCc2ncon2)cc1 [Example 33, 3-(4-N,N-Dimethylaminophenylthiomethyl)-1,2,4-oxadiazole] the inhibition in vivo at 100 mg/kg (P. berghei) was 19%.

For c1ccc(SCc2ncon2)cc1 [Example 4, 3-Phenylthiomethyl-1,2,4-oxadiazole], the inhibition in vivo at 100 mg/kg (P. berghei) was 49% and the LD50 (Oral LD50 in mice) was about 1600 mg/kg.

In the case of Brc1ccc(SCc2noc(CSc3ccc(Br)cc3)n2)cc1 [Example 26, 3,5-Di-(4-bromophenylthiomethyl)-1,2,4-oxadiazole], the inhibition in vivo at 100 mg/kg (P. berghei) was 99% and the “Index of Inhibition” value (Eimeria tenella [1]; 20μg/ml) was 2.

In the case of Clc1ccc(SCc2ncon2)cc1 [Example 36, 3-(4-Chlorophenylthiomethyl)-1,2,4-oxadiazole], the “Index of Inhibition” value (Eimeria tenella [2]) was 4 (91-100% inhibition).

With COc1ccc(SCc2ncon2)cc1 [Example 13, 3-(4-Methoxyphenylthiomethyl)-1,2,4-oxadiazole] the “Index of Inhibition” value (Eimeria tenella [1]; 20μg/ml) was 2.

With Cc1nc(CSc2cccc(C)c2C)no1 [Example 23, 3-(2,3-Dimethylphenylthiomethyl)-5-methyl-1,2,4-oxadiazole] the “Index of Inhibition” value (Eimeria tenella [1]; 20μg/ml) was 3.

In the case of Clc1ccc(SCc2ncon2)cc1Cl [Example 20, 3-(3,4-Dichlorophenylthiomethyl)-1,2,4-oxadiazole], the “Index of Inhibition” value (Eimeria tenella [1]; 20μg/ml) was 3.

In the case of COc1cccc(SCc2ncon2)c1 [Example 10, 3-(3-Methoxyphenylthiomethyl)-1,2,4-oxadiazole], the “Index of Inhibition” value (Eimeria tenella [1]; 5μg/ml) was 4 (91-100% inhibition).

For CCCCc1ccc(SCc2ncon2)cc1 [Example 32, 3-(4-n-Butylphenylthiomethyl)-1,2,4-oxadiazole], the “Index of Inhibition” value (Eimeria tenella [1]; 20μg/ml) was 2.
